Results reported in patent publication US8551958B2, “Galactosylated pro-drugs of non-steroidal anti-inflammatories with improved pharmacokinetic characteristics and reduced toxicity of the starting drug” (Stewart Italia Srl, priority 2008, dated 2013).
Entries after “also recorded” stand apart in the source; their conditions may differ.

Columns and labels:
[1] = test system: writhing induced by magnesium sulphate; experiment: Writhing induced by magnesium sulphate (visceral pain); assay type: in vivo, mouse; details: ketorolac 0.01 to 10 mg/kg, Ketogal in equimolar dose; 1 hour before magnesium sulphate 120 mg/kg
Description: In order to determine whether ketorolac and Ketogal are able to inhibit visceral pain, the effects of these compounds on “writhing” induced by magnesium sulphate were tested. Magnesium sulphate induces a reversible response when injected by intraperitoneal route in the mouse. The administration of 120 mg/kg of magnesium sulphate induces an average of 6±0.9 episodes of “writhing” in the mouse (n=6).

[2] = test system: PGE synthase; experiment: Western blot, stomach, PGE synthase protein expression; assay type: in vivo, mice; details: ketorolac 10 mg/Kg, ketogal 16.3 mg/Kg, oral, 3, 5 and 7 days
Source text: (§1) Animals were sacrificed and then liver, stomach and kidney were collected in glass tubes and analysed histologically and biochemically.

[3] = test system: writhing induced by acetic acid; experiment: Writhing test induced by acetic acid; assay type: in vivo, mice
Description: The analgesic activity was studied using the “writhing test” using acetic acid and using magnesium sulphate. To the mice there was administered by intraperitoneal route 1 mL of solution at 1% of acetic acid, and the number of writhing events was evaluated for 20 min, after 5 min from administration of the solution of acetic acid. Writhing is defined as a contraction of the abdominal muscles accompanied by elongation of the body and of the rear legs. Ketorolac and Ketogal were administered by oral route 60 min prior to administration of the solution of acetic acid. The analgesic effect is expressed in number of writhing events as compared to the control.

[4] = Enzymatic stability in plasma, HPLC; assay type: in vitro ADME; details: plasma specimen, 37° C., in the dark; read-out: Plasma T½ (converted)
Description: For the stability study, the solutions of pro-drug were prepared by dissolving an aliquot of Ketogal in a phosphate buffer at pH 7.4, or else in a solution of HCl 0.1 N (pH 1), as regards chemical stability, or else in a plasma specimen, for enzymatic stability. The solutions were kept in the dark, at a temperature of 37° C., for 24 hours. After each hour an aliquot of specimen was taken. In the case of plasma, said aliquot was previously extracted with acetonitrile (1:2), “vortexed” and centrifuged at 3000 r.p.m. for 10 min. The supernatant was taken and used for analysis at HPLC with diode detector. The half-lives for chemical stability and enzymatic stability were calculated by quantizing, in time, the percentage of pro-drug that remained in solution. For the chromatographic separations, a 1090L HPLC (Hewlett-Packard, Palo Alto, USA) was used, coupled to a diode detector HP 1040A. A Phenomenex Luna C18 (250×4.6 mm, 5 μm) column was used. The wavelength used was 313 nm. The mobile phase was constituted by acetonitrile and an aqueous solution of phosphoric acid […] (pH 3) in the ratio of 68:32. The flow was 1 mL/min, with an injection volume of 20 μl. All the reagents and the solvents used were of analytical degree. The distilled and deionized water was purified by means of a Milli Q system (Millipore). […] The straight line of calibration for quantification of the compounds was constructed using standard solutions with concentrations of between 0.1 and 100 μg/ml. […]
For the study of the stability, the solutions of pro-drug were prepared by dissolving an aliquot of Flugal in a phosphate buffer at pH 7.4, as regards chemical stability, or else in a plasma specimen, for enzymatic stability. […] The half-lives for the chemical stability and enzymatic stability were calculated by quantizing, in time, the percentage of pro-drug that remained in solution. […] For the quantitative determination reading was made at 250 nm. […] The straight line of calibration for the quantification of the compounds was constructed using standard solutions with concentrations of between 0.1 and 100 μg/ml. […]

[5] = test system: male Swiss mice; experiment: Ulcerogenicity studies, ketorolac and Ketogal (gastric lesions); assay type: in vivo; details: oral, Ketogal 16.3 mg/kg
Description: The gastric lesions were evaluated in male Swiss mice. To the fasted animals (16-18 h) were administered, by oral route, ketorolac (10 mg/kg), Ketogal (16.3 mg/kg), or the vehicle. After 4 hours, the mice were sacrificed and the stomach removed, cut along the major curvature, washed with physiological solution, and the mucous was examined for evaluation of the presence of petechias and/or gastric lesions. A “score” of 1 was assigned to the petechias, and a “score” based on the diameter (a “score” of 5 for lesions of a diameter of less than 1 mm; a “score” of 10 for lesions with a diameter of more than 1 mm) was, instead, assigned to the lesions.

[6] = test system: TNF-alpha; experiment: Western blot in liver lysates, TNF-alpha; assay type: in vivo, mice; details: ketogal 16.3 mg/Kg oral for 3, 5 and 7 days
Description: as §1
Liver samples were fixed in 10% buffered formalin and embedded in paraffin, sliced, and stained with hematoxylin & eosin (H&E) for assessment of liver pathology. […] To confirm histological data, western blot analysis for TNF-alpha, IL-6 and malonyldialdehyde assay were then performed in liver lysates.

Compound: O=C(c1ccccc1)c1ccc2n1CC[C@@H]2C(=O)OCC1O[C@H](O)C(O)C(O)[C@H]1O (mixture of isomers) [Ketogal, ketorolac-D-galactos-6′-yl ester]
- Inhibition of writhing induced by magnesium sulphate [1]: able to inhibit this response in a dose-dependent way
- Gastric PGE synthase protein expression [2]: not inhibited
- Analgesic activity compared with ketorolac ([3]; Ketogal 0.163 mg/kg versus ketorolac 0.1 mg/kg, oral and subcutaneous administration): better analgesic and anti-inflammatory activity than ketorolac
- Analgesic effect (number of writhing events compared to control) ([3]; oral, 60 min prior to acetic acid, ketorolac 0.01-10 mg/kg, Ketogal 0.0163-16.3 mg/kg): dose-dependent analgesic effect of higher than 0.163 mg/kg
- half-life [4]: 90 min
- Gastrolesive properties (in words) ([5]; equimolar to ketorolac 10 mg/kg): does not cause ulcers; also recorded: only a slight irritation of the gastric mucosa, with an almost total absence of ulcers
- Degree of ulcerogenicity ([5]; ketorolac 10.0 mg/kg, after 4 hours, score 1 petechias, 5 or 10 lesions): 1
- Number of ulcers ([5]; ketorolac 10.0 mg/kg, fasted mice, after 4 hours): 1 ± 0.4
- TNF-alpha level in liver [6]: no different compared to control mice
